Measured values published in patent publication US20220395464A1, “ORALLY ADMINISTERED SOLID DOSAGE FORM DRUG” (ASCENTAWITS PHARMACEUTICALS, LTD., priority 2019, published 2022).
Read-outs that look alike come from different tables or passages of the source.

Assay: Pharmacokinetics after single intravenous drip infusion, plasma LC-MS/MS
Format: in vivo, Philippine macaques
Settings: for AUC(0-t) / AUC(0-inf) / clearance / Cmax / half-life / Vd / MRT last / MRT inf / Tmax: cynomolgus monkey, iv, AST-3424 0.58 mg/kg single intravenous infusion; for Tmax: read-out: Tmax, Mean
Protocol: AST-3424 and AST-3424-D6 (i.e. the compound of formula I) were administered to Philippine macaques by intravenous drip infusion, and blood samples were collected at different appointed times. LC-MS/MS was used to determine concentrations of the test substances in plasma of the Philippine macaques after administration, and relevant pharmacokinetic parameters were calculated.
Preparation method: 0.447 ml of AST-3424 (0.2 mg/ml) and 0.481 ml of AST-3424-D6 (0.2 mg/ml) were added into 104.272 ml of the dissolvent, respectively, and mixed for 5 minutes to obtain colorless and clarified solutions with pH 7.0.
The four male Philippine macaques were purchased from Guangxi Xiongsen Primate Development Experiment Co., Ltd. All Philippine macaques were healthy with qualified medical examination and no abnormality. Three of animals were used for the experiment, and one of them was used to prepare blank plasma.
About 0.8 ml of blood samples were collected through femoral vein and anticoagulated with heparin sodium. Appointed times of blood collection were before administration, 0.17, 0.25, 0.5, 0.75, 1, 2, and 4 hours after administration.
The blood samples were placed on ice after collection. Next, plasma samples were separated by centrifugation, and centrifugation conditions were 3500 rpm for 10 minutes at 4° C. Then, the collected plasma samples were stored at −80° C. until analysis. The plasma samples were analyzed by LC-MS/MS by an analysis department of an experimental institution. Besides, Lower limit of quantifications (LLOQ) of AST-3424 and AST-3424-D6 detection were 1 ng/ml. The accuracy of analysis results of an accompanying standard curve and a quality control samples all met the relevant requirements of biological analysis (the accuracy of the quality control samples exceeding 66.7% was between 85˜115%) in a process of the sample detection.
According to average blood concentration data of each group at each appointed time, the pharmacokinetic parameters of the compounds were respectively computed by a pharmacokinetic computing software, a non-compartmental model. In addition, the pharmacokinetic parameters were AUC0-t, AUC0-∞, MRT0-∞, Cmax, Tmax, t1/2, etc. In the case of the concentrations of the samples whose concentration being lower than a lower limit of quantification, the following schemes were used to compute the pharmacokinetic parameters. The samples sampled before reaching Cmax shall be computed as zero value, while the samples sampled after reaching Cmax shall be computed as non-quantifiable (marked as “BLQ”).
After a single intravenous infusion of the compounds AST-3424 and AST-3424-D6 was administered to the Philippine macaques, the whole blood samples of the corresponding animals were collected at the appointed times. Next, the whole blood samples were processed and biologically analyzed to obtain concentrations of the compounds in the plasma at the different appointed times. Results of the assay were listed in Table 14 below, and corresponding means of the plasma-drug concentration-time curves are shown in FIG. 3.
According to the plasma-drug concentration data of each drug group, the pharmacokinetic parameters of each compound group were computed using the non-compartmental model of the pharmacokinetic computing software. The pharmacokinetic

[1] = male, Philippine macaque, plasma, intravenous, 0.58 mg/kg, AST-3424 intravenous drip infusion 0.58 mg/kg, individual animals 101, 102, 103, read-out: Plasma-drug concentration
[2] = male, Philippine macaque, plasma, intravenous, 0.58 mg/kg, AST-3424 intravenous drip infusion 0.58 mg/kg, read-out: Plasma-drug concentration, mean

C[C@H](OP(=O)(N1CC1)N1CC1)c1ccc([N+](=O)[O-])c(Oc2cccc(C(=O)N(C)C)c2)c1 [AST-3424, (S)-1-(3-(3-N,N-Dimethylaminocarbonyl)phenoxy-4-nitrophenyl)-1-ethyl-N,N′-bis(ethylene) phosphoramidate]
Plasma-drug concentration (AST-3424 intravenous drip infusion 0.58 mg/kg, 4 hr, individual animals 101, 102, 103, LLOQ 1 ng/ml): BLQ
AUC(0-t) (male, Philippine macaque, plasma, 0.58 mg/kg, plasma, individual animals 101, 102, 103, read-out: AUC(0−t)): 404 ng·h/mL
AUC(0-inf) (male, Philippine macaque, plasma, 0.58 mg/kg, plasma, individual animals 101, 102, 103, read-out: AUC(0−∞)): 409 ng·h/mL
clearance (male, Philippine macaque, plasma, 0.58 mg/kg, plasma, individual animals 101, 102, 103, read-out: Cl (converted)): 23.6 mL/min/kg
Cmax (male, Philippine macaque, plasma, 0.58 mg/kg, plasma, individual animals 101, 102, 103, read-out: Cmax): 696 ng/mL
half-life (male, Philippine macaque, plasma, 0.58 mg/kg, plasma, individual animals 101, 102, 103, read-out: T1/2 (converted)): 6.6 min
Vd (male, Philippine macaque, plasma, 0.58 mg/kg, plasma, individual animals 101, 102, 103, read-out: Vss): 0.202 L/kg
Vd (male, Philippine macaque, plasma, 0.58 mg/kg, plasma, individual animals 101, 102, 103, read-out: Vz): 0.231 L/kg
AUC(0-t) (male, Philippine macaque, plasma, 0.58 mg/kg, plasma, read-out: AUC(0−t), Mean): 436 ± 35.6 ng·h/mL
AUC(0-inf) (male, Philippine macaque, plasma, 0.58 mg/kg, plasma, read-out: AUC(0−∞), Mean): 438 ± 33.5 ng·h/mL
clearance (male, Philippine macaque, plasma, 0.58 mg/kg, plasma, read-out: Cl, Mean (converted)): 22.1 mL/min/kg
Cmax (male, Philippine macaque, plasma, 0.58 mg/kg, plasma, read-out: Cmax, Mean): 725 ± 66.6 ng/mL
MRT last (male, Philippine macaque, plasma, 0.58 mg/kg, plasma, read-out: MRT(0−t), Mean): 10.2 ± 1.8 min
MRT inf (male, Philippine macaque, plasma, 0.58 mg/kg, plasma, read-out: MRT(0−∞), Mean): 10.2 ± 1.8 min
half-life (male, Philippine macaque, plasma, 0.58 mg/kg, plasma, read-out: T1/2, Mean (converted)): 9.6 min
Tmax (male, Philippine macaque, plasma, 0.58 mg/kg, plasma): 18.6 min
Vd (male, Philippine macaque, plasma, 0.58 mg/kg, plasma, read-out: Vz, Mean): 0.306 L/kg
concentration at 0.17 hr [1]: 638 ng/mL
concentration at 0.17 hr [2]: 708 ng/mL
concentration at 0.25 h [1]: 649 ng/mL
concentration at 0.25 h [2]: 691 ng/mL
concentration at 0.5 h [1]: 677 ng/mL
concentration at 0.5 h [2]: 695 ng/mL
concentration at 0.75 h [1]: 152 ng/mL
concentration at 0.75 h [2]: 143 ng/mL
concentration at 1 h [1]: 57.3 ng/mL
concentration at 1 h [2]: 46.6 ng/mL
concentration at 2 h (male, Philippine macaque, plasma, intravenous, 0.58 mg/kg, AST-3424 intravenous drip infusion 0.58 mg/kg, 2 hr, individual animals 101, 102, 103, LLOQ 1 ng/ml, read-out: Plasma-drug concentration): 1.29 ng/mL
concentration at 2 hr (male, Philippine macaque, plasma, intravenous, 0.58 mg/kg, AST-3424 intravenous drip infusion 0.58 mg/kg, 2 hr, read-out: Plasma-drug concentration, mean): 1.4 ng/mL
MRT last (male, plasma, 0.58 mg/kg, plasma, individual animals 101, 102, 103, read-out: MRT(0−t)): 7.8 min
MRT inf (male, plasma, 0.58 mg/kg, plasma, individual animals 101, 102, 103, read-out: MRT(0−∞)): 8.4 min
Tmax (male, plasma, 0.58 mg/kg, plasma): 18.4 min
Vd (male, plasma, 0.58 mg/kg, plasma, read-out: Vss, Mean): 0.226 L/kg
